Source: patent US8415364B2, “Method of preventing or treating glaucoma” (Duke University, priority 2003, dated 2013)

What was measured:
[1] = test system: Porcine primary trabecular meshwork (PTM) cells; assay: Actin stress fibers (phalloidin) and focal adhesion (vinculin) immunofluorescence staining in PTM cells; assay type: cell-based
Method: (§1) Porcine primary trabecular meshwork (PTM) and ciliary muscle cells (PCM) were cultured and treated with lovastatin or compactin at concentrations of 25 μM and 50 μM. Effects on actin stress fibers (phalloidin staining) and focal adhesion formation (vinculin) were evaluated by immunofluorescence staining. Urea/glycerol polyacrylamide gel electrophoresis and Western blot analysis were utilized to investigate the effects of statins on myosin light chain (MLC) phosphorylation. Changes in cell shape were recorded using the phase contrast microscope. A constant flow organ culture perfusion system was used to measure outflow facility in perfused porcine eye anterior segments.

[2] = test system: Porcine primary trabecular meshwork (PTM) cells; assay: Cell shape by phase contrast microscopy in PTM cells; assay type: cell-based
Method: as §1

[3] = test system: myosin light chain (MLC) phosphorylation; assay: MLC phosphorylation by urea/glycerol PAGE and Western blot in PTM cells; assay type: cell-based, porcine
Method: as §1

[4] = test system: perfused porcine eye anterior segments; assay: Constant flow organ culture perfusion of porcine eye anterior segments
Method: as §1

[5] = PTM cells, within 24 hours of drug administration

Compound	effect on lovastatin-induced changes in cell shape and cytoskeletal organization ([1]; supplementation of cell culture media containing lovastatin)	changes in cell shape ([2]; 25 μM and 50 μM)	reversibility of morphological changes ([2]; upon drug withdrawal)	effect on actin stress fibers [1, 5]	effect on focal adhesions [1, 5]	MLC phosphorylation [3]	drop in intraocular pressure ([4]; 100 μM, at 72 hours, control eyes 22% reduction, ongoing study)	ability to decrease IOP ([4]; organ culture perfusion model)
CC(C)=CCC/C(C)=C/CC/C(C)=C/CC/C(C)=C/COP(=O)(O)OP(=O)(O)O [geranylgeranyl pyrophosphate]	completely reversed	–	–	–	–	–	–	–
CC[C@H](C)C(=O)O[C@H]1C[C@@H](C)C=C2C=C[C@H](C)[C@H](CC[C@@H]3C[C@@H](O)CC(=O)O3)[C@H]21 [lovastatin]	–	dramatic changes in cell shape	reversible upon drug withdrawal	actin depolymerization	loss of focal adhesions	marked reduction	48%	ability to decrease IOP
